According to patent US20190070170A1, “METHOD OF S[…]-1” (Macau University of Science and Technology, priority 2017, published 2019):

Columns and labels:
[1] = tested on: mPGES-1; assay: mPGES-1 mRNA level in LPS-activated rat peritoneal macrophages (qRT-PCR); type: cell-based; settings: SIN 1 h, LPS 12 h
Experimental: Peritoneal macrophages were cultured in 6-well plates and pre-treated with the indicated concentration of SIN for 1 h, followed by LPS stimulation for another 12 h. RNA was isolated from rat peritoneal macrophages using the Nucleospin RNA kit from Macherey-Nagel (Duren, Germany) according to the manufacturer's instructions. RNA concentration derived from each sample was assessed by NanoDrop UV Spectrophotometer from Thermo Scientific (Asheville, N.C., USA). RNA (1 μg) was reverse transcripted using the transcriptor universal cDNA master reagents from Roche Applied Science (Mannheim, Germany). Gene expression quantification was performed by a high-productivity real-time quantitative PCR ViiA™ 7 machine using SYBR Green reagents from Roche Applied Science (Mannheim, Germany) according a standard protocol recommended by the manufacturer and the cycling parameters were as followed: uracil removal incubation (50° C., 2 min), polymerase activation (95° C., 10 min), 40 cycles of denaturation (95° C., 15 s) and annealing/extension (60° C., 30 s) and a melt curve stage (95° C., 15 s, 60° C., 1 min and 95° C., 15 s).
Rat primers used in the research are listed as follows:
• The levels of gene expression were quantitated using the 2(−Delta Delta C(T)) method. […]

[2] = tested on: NO; assay: NO production in LPS-stimulated rat peritoneal macrophages (Griess reagent); type: cell-based; settings: pretreatment 1 h, LPS 1 μg/ml 24 h
Experimental: (§1) Sprague-Dawley (SD) rats from the University of Hong Kong were housed in cages with free access to food and water. Peritoneal macrophages of SD rats were isolated as described in Liu J. et al., Pharmacological research 2016, 111:303-315. Briefly, untreated rats were sacrificed and after laparotomy, about 50 ml cold sterile Hank's balanced salt solution (HBSS) was used to lavage the peritoneal cavity at twice, and then the peritoneal lavage fluid was collected and centrifuged at 1500 rpm for 10 min. The cell pellets was suspended at a density 1.5×10^6 cells/ml in pre-hearted DMEM medium with 10% heat-inactivated FBS, penicillin G (100 units/ml), streptomycin ([…]), and L-glutamine (2 mM), followed by seeding in 6-well plates at a density of 4.5×10^6 cells and incubation for 2 h. Then the medium were discarded to remove the non-adherent cells. The adherent cells were further washed for two times with pre-heated DMEM medium to remove floating cells. Next, cells were pre-treated with various concentration of SIN for 1 h, followed by stimulation with LPS (1 μg/ml).
(§2) RAW264.7 cells and rat peritoneal macrophages were seeded in a 96-well plate at density of 1.4×10^4 and 1.5×10^5 cells, respectively. […] The optical density was measured at 570 nm against a reference wavelength of 650 nm using a microplate UV/VIS spectrophotometer (Tecan, Mannedorf, Switzerland). […]

[3] = tested on: PGE2; assay: PGE2 production in LPS-stimulated rat peritoneal macrophages (ELISA); type: cell-based; settings: SIN 160, 320 or 640 μM or 0.5 μM DEX 1 h, then LPS 1 μg/ml 24 h
Experimental: as §1, §2

[4] = tested on: cPLA2; assay: cPLA2 protein expression in LPS-activated rat peritoneal macrophages (western blotting); type: cell-based; settings: SIN or DEX 1 h, LPS 24 h
Experimental: as §1
Whole-cell and nuclear proteins were obtained using RIPA lysis buffer (CST, Boston, Mass., USA) and Nuclear and Cytoplasmic Extraction Reagents kit from Thermo Scientific (Asheville, N.C., USA), respectively. […] The levels of protein expression were measured using Odyssey v3.0 software from Li-COR (Lincoln, Nebr., USA).

[5] = tested on: carrageenan-induced paw edema; assay: Carrageenan-induced rat paw edema model; type: in vivo, SD rats; settings: SIN 25, 50 and 100 mg/kg i.p. 2 h before carrageenan
Experimental: The model of carrageenan-induced paw edema was performed with SD rats (150-200 g). […] Briefly, rats were fasted for 12 h before experiment and intraperitoneal injection was performed with three different doses (25, 50 and 100 mg/kg) of SIN, or DEX (reference drug, 2 mg/kg) or 0.9% saline (Vehicle and Normal group rats), at 2 h prior to the induction of paw edema. Paw edema was induced by subcutaneous injection of 100 μl of 1% (w/v) freshly prepared λ-carrageenan (Sigma, St Louis, Mo., USA) diluted in saline in the right hind foot pad. 100 μl sterile saline was injected to the rats in the right hind paw as normal control. Paw volumes (ml) of right hind foot of each rat were measured using a plethysmometer (type 7150; UGO Basile, Comerio, Italy) at 0 h (before carrageenan injection) and then again at 1, 2, 3 and 4 h after the injection of carrageenan or saline. The percentage of paw edema of the right hind paws of all groups were calculated at different time points by the following equation: Swelling ratio in each time points=(the paw volume after injection−the paw volume before injection)/the paw volume before injection×100

COC1=C[C@@H]2[C@@H]3Cc4ccc(OC)c(O)c4[C@]2(CCN3C)CC1=O [SIN, sinomenine]
mPGES-1 gene expression (mRNA) [1]: significantly and dose-dependently inhibited | NO production (nitrite) [2]: significantly inhibited | PGE2 production [3]: significant inhibition of PGE2 production in a dose dependent manner | cPLA2 expression [4]: no influences | paw edema (percentage of increase in paw volume) ([5]; at 2, 3 and 4 h): successfully reduced paw edema in a dose dependent manner | paw edema (percentage of increase in paw volume) ([5]; at 1 h): no effects
